# Results: patent US8106055B2, “Substituted amide compounds” (Gruenenthal GmbH, priority 2007, dated 2012)
# Where two headings read alike, the source gives them in different places.
# How the values were obtained:
# [1] = biological target: T1, bradykinin 1 receptor (B1R) of the rat (Rattus norvegicus, UniProt P97583); experiment: Functional investigation on the rat bradykinin 1 receptor (B1R), Ca2+ FLIPR assay in CHO K1 rB1R cells; type: cell-based
# T1 construct: expressed in transfected cells; host or cells: CHO K1 cells
# T1 sequence (P97583 1-337): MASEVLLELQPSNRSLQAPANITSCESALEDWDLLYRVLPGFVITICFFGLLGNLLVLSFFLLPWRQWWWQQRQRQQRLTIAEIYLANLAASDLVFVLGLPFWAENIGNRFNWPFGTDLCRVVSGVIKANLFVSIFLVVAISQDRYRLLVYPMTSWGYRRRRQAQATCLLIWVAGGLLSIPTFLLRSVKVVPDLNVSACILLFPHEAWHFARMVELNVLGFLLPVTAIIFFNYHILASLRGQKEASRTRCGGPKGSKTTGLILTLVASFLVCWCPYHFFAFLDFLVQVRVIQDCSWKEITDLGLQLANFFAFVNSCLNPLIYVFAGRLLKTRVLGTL
# Summary of the method: (§1)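 Peak Ca2+-dependent fluorescence in B1R-transfected CHO K1 cells measures antagonism of an EC80 agonist challenge given 10-20 min after compound. Agonist is Lys-Des-Arg9-bradykinin for human, Des-Arg9-bradykinin for rat receptor.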
# [2] = biological target: T2, human bradykinin 1 receptor (B1R) (Homo sapiens, UniProt P46663); experiment: Functional investigation on the human bradykinin 1 receptor (B1R), Ca2+ FLIPR assay in CHO K1 hB1R cells; type: cell-based
# T2 construct: expressed in transfected cells; host or cells: CHO K1 cells
# T2 sequence (P46663 1-353): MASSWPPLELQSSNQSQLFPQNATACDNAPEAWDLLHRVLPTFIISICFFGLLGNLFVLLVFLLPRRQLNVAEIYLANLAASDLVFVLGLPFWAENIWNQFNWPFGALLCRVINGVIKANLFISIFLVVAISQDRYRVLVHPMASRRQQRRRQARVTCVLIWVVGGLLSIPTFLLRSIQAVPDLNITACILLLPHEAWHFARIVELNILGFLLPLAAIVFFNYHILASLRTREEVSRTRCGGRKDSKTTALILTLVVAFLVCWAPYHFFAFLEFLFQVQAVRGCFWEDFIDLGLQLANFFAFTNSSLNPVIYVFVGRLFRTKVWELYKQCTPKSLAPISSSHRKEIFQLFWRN
# Summary of the method: as §1
# [3] = CHO-K1, B1R antagonism rat, test substance 10 μM, Ca2+ FLIPR, CHO K1 rB1R cells, read-out: B1R Ant. r [10 μM] % Inhibition
# [4] = CHO-K1, B1R antagonism human, test substance 10 μM, Ca2+ FLIPR, CHO K1 hB1R cells, read-out: B1R Ant. h [10 μM] % Inhibition
# [5] = CHO-K1, read-out: B1R Ant. r [10 μM] % Inhibition
# [6] = CHO-K1, read-out: B1R Ant. h [10 μM] % Inhibition
Compound,"inhibition at 10 µM [1, 3] [%]","inhibition at 10 µM [2, 4] [%]","inhibition at 10 µM [1, 5] [%]","inhibition at 10 µM [2, 6] [%]"
"CN(C)C(c1cccs1)C1CCC(CNC(=O)COC2CCN(S(=O)(=O)c3ccccc3)C2)CC1 (centres unmarked) [Example 36, N-((4-((dimethylamino)(thiophen-2-yl)methyl)cyclohexyl)methyl)-2-(1-(phenylsulfonyl)pyrrolidin-3-yloxy)acetamide]",3,-11,–,–
"CCN(CCOCC(=O)NC1CCC(C(c2cccs2)N(C)C)CC1)S(=O)(=O)c1c(C)cc(OC)c(C)c1C (centres unmarked) [Example 59, N-(4-((dimethylamino)(thiophen-2-yl)methyl)cyclohexyl)-2-(2-(N-ethyl-4-methoxy-2,3,6-trimethylphenylsulfonamido)ethoxy)acetamide]",70,56,–,–
"COc1ccc(S(=O)(=O)N2CCCCC2CCOCC(=O)NC2CCC(C(c3cccc(F)c3)N(C)C)CC2)cc1 (centres unmarked) [Example 62, N-(4-((dimethylamino)(3-fluorophenyl)methyl)cyclohexyl)-2-(2-(1-(4-methoxyphenylsulfonyl)piperidin-2-yl)ethoxy)acetamide]",32,40,–,–
"CN(C)C(c1ccccc1)C1CCC(CNC(=O)COCCN(C)S(=O)(=O)c2cccc(C(F)(F)F)c2)CC1 (centres unmarked) [Example 91, N-((4-((dimethylamino)(phenyl)methyl)cyclohexyl)methyl)-2-(2-(N-methyl-3-(trifluoromethyl)phenylsulfonamido)ethoxy)acetamide]",34,42,–,–
"Cc1ccc(S(=O)(=O)N(C)CCOCC(=O)NCC2CCC(C(c3cccs3)N(C)C)CC2)cc1 (centres unmarked) [Example 4, N-((4-((dimethylamino)(thiophen-2-yl)methyl)cyclohexyl)methyl)-2-(2-(N,4-dimethylphenylsulfonamido)ethoxy)acetamide]",18,2,–,–
"COc1ccc(S(=O)(=O)N2CCCCC2CCOCC(=O)NCCC2CCC(C(c3cccs3)N(C)C)CC2)cc1 (centres unmarked) [Example 46, N-(2-(4-((dimethylamino)(thiophen-2-yl)methyl)cyclohexyl)ethyl)-2-(2-(1-(4-methoxyphenylsulfonyl)piperidin-2-yl)ethoxy)acetamide]",77,86,–,–
"COc1ccc(S(=O)(=O)N2CCC(OCC(=O)NCCC3CCC(C(c4cccs4)N(C)C)CC3)C2)cc1OC (centres unmarked) [Example 94, 2-(1-(3,4-dimethoxyphenylsulfonyl)pyrrolidin-3-yloxy)-N-(2-(4-((dimethylamino)(thiophen-2-yl)methyl)cyclohexyl)ethyl)acetamide]",21,-5,–,–
"COc1cc(C)c(S(=O)(=O)N2CCC(OCC(=O)NC3CCC(C(c4cccs4)N(C)C)CC3)C2)c(C)c1C (centres unmarked) [Example 43, N-(4-((dimethylamino)(thiophen-2-yl)methyl)cyclohexyl)-2-(1-(4-methoxy-2,3,6-trimethylphenylsulfonyl)pyrrolidin-3-yloxy)acetamide]",21,37,–,–
"COc1cc(C)c(S(=O)(=O)N(C)CCOCC(=O)NCCC2CCC(C(c3cccs3)N(C)C)CC2)c(C)c1 (centres unmarked) [Example 84, N-(2-(4-((dimethylamino)(thiophen-2-yl)methyl)cyclohexyl)ethyl)-2-(2-(4-methoxy-N,2,6-trimethylphenylsulfonamido)ethoxy)acetamide]",103,104,–,–
"COc1ccc(S(=O)(=O)N2CCCCC2COCC(=O)NCC2CCC(C(c3ccccc3)N(C)C)CC2)cc1 (centres unmarked) [Example 88, N-((4-((dimethylamino)(phenyl)methyl)cyclohexyl)methyl)-2-((1-(4-methoxyphenylsulfonyl)piperidin-2-yl)methoxy)acetamide]",68,80,–,–
"CN(C)C(c1cccs1)C1CCC(NC(=O)COC2CCCN(S(=O)(=O)c3ccccc3)C2)CC1 (centres unmarked) [Example 42, N-(4-((dimethylamino)(thiophen-2-yl)methyl)cyclohexyl)-2-(1-(phenylsulfonyl)piperidin-3-yloxy)acetamide]",–,–,-17,-14
"CN(C)C(c1ccccc1)C1CCC(CNC(=O)COCCN(C)S(=O)(=O)c2ccc(OC(F)(F)F)cc2)CC1 (centres unmarked) [Example 53, N-((4-((dimethylamino)(phenyl)methyl)cyclohexyl)methyl)-2-(2-(N-methyl-4-(trifluoromethoxy)phenylsulfonamido)ethoxy)acetamide]",41,19,–,–
"COc1cc(C)c(S(=O)(=O)N(C)CCOCC(=O)NCCC2CCC(C(c3cccs3)N(C)C)CC2)c(C)c1C (centres unmarked) [Example 52, N-(2-(4-((dimethylamino)(thiophen-2-yl)methyl)cyclohexyl)ethyl)-2-(2-(4-methoxy-N,2,3,6-tetramethylphenylsulfonamido)ethoxy)acetamide]",53,103,–,–
"COc1cc(C)c(S(=O)(=O)N2CCC(CCOCC(=O)NC3CCC(C(c4cccs4)N(C)C)CC3)CC2)c(C)c1C (centres unmarked) [Example 5, N-(4-((dimethylamino)(thiophen-2-yl)methyl)cyclohexyl)-2-(2-(1-(4-methoxy-2,3,6-trimethylphenylsulfonyl)piperidin-4-yl)ethoxy)acetamide]",-3,24,–,–
"CN(C)C(c1cccs1)C1CCC(CNC(=O)COCCN(C)S(=O)(=O)c2ccc(F)cc2)CC1 (centres unmarked) [Example 56, N-((4-((dimethylamino)(thiophen-2-yl)methyl)cyclohexyl)methyl)-2-(2-(4-fluoro-N-methylphenylsulfonamido)ethoxy)acetamide]",–,–,-4,22
"COc1cc(C)c(S(=O)(=O)N2CCC(OCC(=O)NCC3CCC(C(c4cccs4)N(C)C)CC3)C2)c(C)c1 (centres unmarked) [Example 86, N-((4-((dimethylamino)(thiophen-2-yl)methyl)cyclohexyl)methyl)-2-(1-(4-methoxy-2,6-dimethylphenylsulfonyl)pyrrolidin-3-yloxy)acetamide]",100,98,–,–
"CN(C)C(c1cccs1)C1CCC(CCNC(=O)COCCN(C)S(=O)(=O)c2ccc(F)cc2)CC1 (centres unmarked) [Example 85, N-(2-(4-((dimethylamino)(thiophen-2-yl)methyl)cyclohexyl)ethyl)-2-(2-(4-fluoro-N-methylphenylsulfonamido)ethoxy)acetamide]",12,7,–,–
"CN(C)C(c1ccccc1)C1CCC(NC(=O)COC2CCCCC2N(C)S(=O)(=O)c2ccc(Cl)c(Cl)c2)CC1 (centres unmarked) [Example 39, 2-(2-(3,4-dichloro-N-methylphenylsulfonamido)cyclohexyloxy)-N-(4-((dimethylamino)(phenyl)methyl)cyclohexyl)acetamide]",-8,89,–,–
"CN(C)C(c1ccccc1)C1CCC(CNC(=O)COC2CCN(S(=O)(=O)c3ccc(Cl)cc3Cl)C2)CC1 (centres unmarked) [Example 67, 2-(1-(2,4-dichlorophenylsulfonyl)pyrrolidin-3-yloxy)-N-((4-((dimethylamino)(phenyl)methyl)cyclohexyl)methyl)acetamide]",–,–,46,48
"CN(C)C(c1ccccc1)C1CCC(NC(=O)COCCN(C)S(=O)(=O)c2c(Cl)cc(Cl)cc2Cl)CC1 (centres unmarked) [Example 34, N-(4-((dimethylamino)(phenyl)methyl)cyclohexyl)-2-(2-(2,4,6-trichloro-N-methylphenylsulfonamido)ethoxy)acetamide]",24,102,–,–
"CN(C)C(c1cccc(F)c1)C1CCC(CNC(=O)COCCN(C)S(=O)(=O)c2c(Cl)cccc2Cl)CC1 (centres unmarked) [Example 72, 2-(2-(2,6-dichloro-N-methylphenylsulfonamido)ethoxy)-N-((4-((dimethylamino)(3-fluorophenyl)methyl)cyclohexyl)methyl)acetamide]",38,94,–,–
"COc1cc(C)c(S(=O)(=O)N2CCC(OCC(=O)NCCC3CCC(C(c4cccs4)N(C)C)CC3)C2)c(C)c1C (centres unmarked) [Example 74, N-(2-(4-((dimethylamino)(thiophen-2-yl)methyl)cyclohexyl)ethyl)-2-(1-(4-methoxy-2,3,6-trimethylphenylsulfonyl)pyrrolidin-3-yloxy)acetamide]",27,66,–,–
